Patent US10301630B2, “Methods and compositions for unsilencing imprinted genes” (The University of North Carolina at Chapel Hill, priority 2010, dated 2019)

Test system: paternal Ube3a-YFP mRNA
Assay: Real-time PCR of Ube3a-YFP transcript in cortical neurons
Format: cell-based, mouse
Details: 10 μM for 72 h
From the text: Total mRNA was isolated by guanidinium thiocyanate-phenol-chloroform extraction using the Trizol reagent (Invitrogen Inc.). Total mRNAs from samples were converted into cDNA and subjected to real-time PCR (RT-PCR) analyses to quantify Ube3a-YFP transcript levels using oliognucleotide primers against Ube3a (Forward sequence: [NT] (SEQ ID NO:1); reverse sequence: [NT] (SEQ ID NO:2)) and total transcript reads were normalized to Oaz1 (Forward sequence: [NT] (SEQ ID NO:3); reverse sequence: [NT] (SEQ ID NO:4)).

CCc1c2c(nc3ccc(OC(=O)N4CCC(N5CCCCC5)CC4)cc13)-c1cc3c(c(=O)n1C2)COC(=O)[C@]3(O)CC [Irinotecan]
paternal Ube3a-YFP mRNA level (RT-PCR): significantly increased the level of paternal Ube3a-YFP mRNA
